Consider 18 compounds from patent publication US10975068B2, “6-aminopyridin-3-yl thiazoles as modulators of RORγT” (Janssen Pharmaceutica NV, priority 2016, dated 2021).

One assay concerns the target full-length human RORγt (Homo sapiens (Human), UniProt P51449). The assay can be described thus: RORγt (full-length human) reporter assay, Conditions B or C. It counts as cell-based. The conditions noted are these: for inhibition at 3 µM: at 3 μM compound concentration, read-out: RORγt (FL) Reporter Assay B or C, % inhibition; for IC50: read-out: RORγt (FL) Reporter Assay B or C, IC50; for RORγt (FL) Reporter Assay B or C, % inhibition (value marked *): marked *: footnote not given. In short, it runs like this:
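HEK293T cells transiently co-transfected with GAL4-DBD–full-length human RORγt (nt 142-1635, NM_001001523.1) plus GAL4-firefly and CMV-Renilla luciferase reporters; compounds added 4-6 h post-transfection for 16-20 h in 1.3% FBS, 0.1% DMSO. Firefly signal normalized to DMSO and saturating reference compound, then to Renilla; IC50 from concentration plots.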

Assay [1] has as its target human RORγt ligand binding domain (RORγt LBD) (Homo sapiens (Human), UniProt P51449). The assay can be described thus: RORγt ThermoFluor® assay (thermal shift binding). The following applies: read-out: ThermoFluor® Assay, Kd. In short, it runs like this: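 His-tagged human RORγt LBD (0.065 mg/mL) with 60 μM 1,8-ANS in 100 mM Hepes pH 7.0, 10 mM NaCl, 2.5 mM GSH, 0.002% Tween-20 was heated at 1 °C/min.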

Where two headings read alike, the source gives them in different places.

human RORγt ligand binding domain (RORγt LBD), sequence (P51449 other isoform, or with tags, fused parts or gaps): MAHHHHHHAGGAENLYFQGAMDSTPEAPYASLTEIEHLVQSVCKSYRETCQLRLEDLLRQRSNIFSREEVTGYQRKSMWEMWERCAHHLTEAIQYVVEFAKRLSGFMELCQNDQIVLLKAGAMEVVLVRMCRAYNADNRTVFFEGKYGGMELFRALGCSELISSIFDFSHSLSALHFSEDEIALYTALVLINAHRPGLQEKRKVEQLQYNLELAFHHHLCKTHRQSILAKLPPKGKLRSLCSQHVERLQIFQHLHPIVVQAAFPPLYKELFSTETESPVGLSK
full-length human RORγt, sequence (P51449 other isoform, or with tags, fused parts or gaps): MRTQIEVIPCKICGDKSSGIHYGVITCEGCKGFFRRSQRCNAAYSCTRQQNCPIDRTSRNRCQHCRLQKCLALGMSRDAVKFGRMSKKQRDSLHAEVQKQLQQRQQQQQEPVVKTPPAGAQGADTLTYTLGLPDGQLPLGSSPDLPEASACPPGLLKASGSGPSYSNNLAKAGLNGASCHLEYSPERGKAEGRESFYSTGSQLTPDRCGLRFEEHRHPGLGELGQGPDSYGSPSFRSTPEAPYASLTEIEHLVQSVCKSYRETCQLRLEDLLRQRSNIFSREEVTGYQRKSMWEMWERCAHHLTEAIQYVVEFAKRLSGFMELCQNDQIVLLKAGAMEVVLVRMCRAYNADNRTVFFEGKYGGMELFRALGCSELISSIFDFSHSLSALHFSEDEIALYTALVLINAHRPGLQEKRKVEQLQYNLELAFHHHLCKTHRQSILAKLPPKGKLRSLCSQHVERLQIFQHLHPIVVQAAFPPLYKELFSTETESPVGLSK

For orientation: inhibition means the change of the read-out against control, counted positive when it falls. In general, IC50 refers to the concentration that inhibits the measured activity by half. For orientation: Kd means the concentration at which binding is half-saturated. Regarding `CC1(Nc2cc(C(F)F)c(-c3sc(C(=O)NC4CCS(=O)(=O)CC4)nc3C(=O)N3C4CCC3CC4)cn2)CCC1` [Example 331, 4-((1s,4s)-7-Azabicyclo[2.2.1]heptane-7-carbonyl)-5-(4-(difluoromethyl)-6-((1-methylcyclobutyl)amino)pyridin-3-yl)-N-(1,1-dioxidotetrahydro-2H-thiopyran-4-yl)thiazole-2-carboxamide], on full-length human RORγt, the inhibition at 3 µM was 81% and the 50% inhibitory concentration (IC50) is 23 nM. For the same compound, in assay [1], the Kd was 1.5 nM.

As for `C[C@H](NC(=O)c1nc(C(=O)N2CCC[C@@H]2C)c(-c2cnc(NC(C)(C)C)cc2C(F)F)s1)C(C)(C)O` [Example 270, 5-[6-(tert-Butylamino)-4-(difluoromethyl)-3-pyridyl]-N-[(1S)-2-hydroxy-1,2-dimethyl-propyl]-4-[(2S)-2-methylpyrrolidine-1-carbonyl]thiazole-2-carboxamide], on full-length human RORγt, the inhibition at 3 µM came to 102% and the half-maximal inhibitory concentration (IC50) came out at 5.1 nM. The equilibrium dissociation constant (Kd) in assay [1] came to 3.5 nM.

On to `CC[C@H](Nc1cc(C(F)(F)F)c(-c2sc(C(=O)NCC(C)(C)O)nc2C(=O)N2CC(F)(F)C[C@@H]2C)cn1)C(F)(F)F` [Example 102, 4-((S)-4,4-Difluoro-2-methylpyrrolidine-1-carbonyl)-N-(2-hydroxy-2-methylpropyl)-5-(6-(((S)-1,1,1-trifluorobutan-2-yl)amino)-4-(trifluoromethyl)pyridin-3-yl)thiazole-2-carboxamide], for which, at full-length human RORγt (Conditions B or C), the “RORγt (FL) Reporter Assay B or C, % inhibition (value marked *)” value (“RORγt … % inhibition (value marked *)” for short) is 116* % and the IC50 is 17 nM. The Kd in assay [1] amounted to 0.99 nM.

For the compound `C[C@H]1CCCN1C(=O)c1nc(C(=O)N[C@H]2C[C@H](O)C2)sc1-c1cnc(N[C@H](C)C(F)(F)F)cc1C(F)F` [Example 319, 5-(4-(Difluoromethyl)-6-(((R)-1,1,1-trifluoropropan-2-yl)amino)pyridin-3-yl)-N-((1r,3S)-3-hydroxycyclobutyl)-4-((S)-2-methylpyrrolidine-1-carbonyl)thiazole-2-carboxamide], at full-length human RORγt, the inhibition at 3 µM came to 91% and the IC50 was 79 nM. Moreover, the dissociation constant (Kd) in assay [1] was 29 nM.

On to `C[C@H]1CCCN1C(=O)c1nc(C(=O)NCC(C)(C)O)sc1-c1cnc(N[C@@H]2CCCC2(F)F)cc1C(F)(F)F` (single isomer, unassigned) [Example 280, 5-(6-(((R*)-2,2-Difluorocyclopentyl)amino)-4-(trifluoromethyl)pyridin-3-yl)-N-(2-hydroxy-2-methylpropyl)-4-((S)-2-methylpyrrolidine-1-carbonyl)thiazole-2-carboxamide], for which, at full-length human RORγt, the inhibition at 3 µM came out at 110% and the concentration for half-maximal inhibition (IC50) stood at 16 nM. The Kd in assay [1] amounted to 4.9 nM.

On to `C[C@H]1CCCN1C(=O)c1nc(C(=O)N[C@@H]2CCC[C@H]2O)sc1-c1cnc(NC(C)(C)C)cc1C(F)(F)F` [Example 351, 5-[6-(tert-Butylamino)-4-(trifluoromethyl)-3-pyridyl]-N-[(1R,2R)-2-hydroxycyclopentyl]-4-[(2S)-2-methylpyrrolidine-1-carbonyl]thiazole-2-carboxamide], for which the half-inhibitory concentration (IC50) on full-length human RORγt amounted to 8 nM. In addition, the Kd in assay [1] came out at 0.15 nM.

In the case of `C[C@H]1CCCN1C(=O)c1nc(C(=O)NC2(CO)COC2)sc1-c1cnc(NC(C)(C)C)cc1C(F)(F)F` [Example 261, 5-[6-(tert-Butylamino)-4-(trifluoromethyl)-3-pyridyl]-N-[3-(hydroxymethyl)oxetan-3-yl]-4-[(2S)-2-methylpyrrolidine-1-carbonyl]thiazole-2-carboxamide], at full-length human RORγt, the inhibition at 3 µM amounted to 104% and the half-inhibitory concentration (IC50) amounted to 23 nM. For the same compound, in assay [1], the dissociation constant Kd amounted to 2.6 nM.

Regarding `CC[C@H](Nc1cc(C(F)F)c(-c2sc(C(=O)N[C@H]3COC[C@H]3O)nc2C(=O)N2CCC[C@@H]2C)cn1)C(F)(F)F` (single isomer, unassigned) [Example 165, 5-(4-(Difluoromethyl)-6-(((S)-1,1,1-trifluorobutan-2-yl)amino)pyridin-3-yl)-N-((3S*,4S*)-4-hydroxytetrahydrofuran-3-yl)-4-((S)-2-methylpyrrolidine-1-carbonyl)thiazole-2-carboxamide], on full-length human RORγt (Conditions B or C), the “RORγt … % inhibition (value marked *)” value is 98* % and the half-maximal inhibitory concentration (IC50) worked out at 40 nM. Also, the dissociation constant (Kd) in assay [1] worked out at 3.1 nM.

In the case of `CCC(C)(C)Nc1cc(C(F)F)c(-c2sc(C(=O)NCC(C)(C)O)nc2C(=O)N2CC(F)(F)C[C@@H]2C)cn1` [Example 94, (S)-4-(4,4-Difluoro-2-methylpyrrolidine-1-carbonyl)-5-(4-(difluoromethyl)-6-(tert-pentylamino)pyridin-3-yl)-N-(2-hydroxy-2-methylpropyl)thiazole-2-carboxamide], on full-length human RORγt (Conditions B or C), the “RORγt … % inhibition (value marked *)” value is 115* % and the IC50 was 12 nM. For the same compound, the Kd in assay [1] came to 0.36 nM.

With `C[C@H](Nc1cc(C(F)(F)F)c(-c2sc(C(=O)NCC(C)(C)O)nc2C(=O)N2CCCC[C@@H]2C)cn1)C1CC1` [Example 39, 5-(6-(((S)-1-Cyclopropylethyl)amino)-4-(trifluoromethyl)pyridin-3-yl)-N-(2-hydroxy-2-methylpropyl)-4-((S)-2-methylpiperidine-1-carbonyl)thiazole-2-carboxamide], the IC50 at full-length human RORγt (Conditions B or C) stood at 13 nM. Moreover, the inhibition at 6 µM at full-length human RORγt (read-out: RORγt (FL) Reporter Assay B or C, % inhibition @ 6 μM, Conditions B or C, @ 6 μM) was 105%. In addition, the Kd in assay [1] was determined as 0.12 nM.

Regarding `C[C@H]1CCCN1C(=O)c1nc(C(=O)N[C@H]2C[C@@](C)(O)C2)sc1-c1cnc(NC(C)(C)C)cc1C(F)(F)F` [Example 337, 5-[6-(tert-Butylamino)-4-(trifluoromethyl)-3-pyridyl]-N-(3-hydroxy-3-methyl-cyclobutyl)-4-[(2S)-2-methylpyrrolidine-1-carbonyl]thiazole-2-carboxamide], on full-length human RORγt, the inhibition at 3 µM was 105% and the concentration for half-maximal inhibition (IC50) came to 13 nM. Further, the equilibrium dissociation constant (Kd) in assay [1] is 2.9 nM.

`CC(C)(O)CNC(=O)c1nc(C(=O)N2C3CCC2CC3)c(-c2cnc(NC(C)(C)C3CC3)cc2C(F)F)s1` [Example 97, 4-((1s,4s)-7-Azabicyclo[2.2.1]heptane-7-carbonyl)-5-(6-((2-cyclopropylpropan-2-yl)amino)-4-(difluoromethyl)pyridin-3-yl)-N-(2-hydroxy-2-methylpropyl)thiazole-2-carboxamide]: on full-length human RORγt (Conditions B or C), the “RORγt … % inhibition (value marked *)” value is reported as 111* % and the IC50 worked out at 3.6 nM. The dissociation constant (Kd) in assay [1] came to 1.3 nM.

Turning to `CC[C@@H](Nc1cc(C(F)F)c(-c2sc(C(=O)NCC(C)(C)O)nc2C(=O)N2CCC[C@@H]2C)cn1)C1CC1` (relative stereo) [Example 167, 5-(6-(((R*)-1-Cyclopropyl)amino)-4-(difluoromethyl)pyridine-3-yl)-N-(2-hydroxy-2-methylpropyl)-4-((S)-2-methylpyrrolidine-1-carbonyl)thiazole-2-carboxamide], on full-length human RORγt (Conditions B or C), the “RORγt … % inhibition (value marked *)” value is reported as 100* % and the half-inhibitory concentration (IC50) turned out to be 120 nM. For the same compound, the Kd in assay [1] amounted to 3.7 nM.

In the case of `CC[C@H](Nc1cc(C(F)F)c(-c2sc(C(=O)N[C@H]3CCC[C@@H]3O)nc2C(=O)N2CC(F)(F)C[C@@H]2C)cn1)C(F)(F)F` [Example 419, 4-[(2S)-4,4-Difluoro-2-methyl-pyrrolidine-1-carbonyl]-5-[4-(difluoromethyl)-6-[[(1S)-1-(trifluoromethyl)propyl]amino]-3-pyridyl]-N-[(1S,2S)-2-hydroxycyclopentyl]thiazole-2-carboxamide], at full-length human RORγt, the inhibition at 3 µM came to 84% and the IC50 is 34 nM. Besides, in assay [1], the equilibrium dissociation constant (Kd) is 0.21 nM.

In the case of `CC[C@@H](Nc1cc(C(F)F)c(-c2sc(C(=O)N[C@H]3C[C@H](O)C3)nc2C(=O)N2CCC[C@@H]2C)cn1)C(F)(F)F` [Example 205, 5-(4-(Difluoromethyl)-6-(((1R)-1-(trifluoromethyl)propyl)amino)-3-pyridyl)-N-((1r,3S)-3-hydroxycyclobutyl)-4-((2S)-2-methylpyrrolidine-1-carbonyl)thiazole-2-carboxamide], at full-length human RORγt (Conditions B or C), the “RORγt … % inhibition (value marked *)” value was 103* % and the IC50 is 33 nM. The Kd in assay [1] is 6.8 nM.

With `CC[C@H](Nc1cc(C(F)F)c(-c2sc(C(=O)N3CCOCC3)nc2C(=O)N2CCC[C@@H]2C)cn1)C(F)(F)F` [Example 395, [5-[4-(Difluoromethyl)-6-[[(1S)-1-(trifluoromethyl)propyl]amino]-3-pyridyl]-2-(morpholine-4-carbonyl)thiazol-4-yl]-[(2S)-2-methylpyrrolidin-1-yl]methanone], at full-length human RORγt, the inhibition at 3 µM worked out at 103% and the half-inhibitory concentration (IC50) is 34 nM. In addition, the Kd in assay [1] was determined as 40 nM.

Turning to `CC[C@H](Nc1cc(C(F)F)c(-c2sc(C(=O)N[C@@H](C)C(C)(C)O)nc2C(=O)N2CCC[C@@H]2C)cn1)C(F)(F)F` [Example 272, 5-[4-(Difluoromethyl)-6-[[(1S)-1-(trifluoromethyl)propyl]amino]-3-pyridyl]-N-[(1S)-2-hydroxy-1,2-dimethyl-propyl]-4-[(2S)-2-methylpyrrolidine-1-carbonyl]thiazole-2-carboxamide], at full-length human RORγt, the inhibition at 3 µM amounted to 105% and the half-maximal inhibitory concentration (IC50) worked out at 18 nM. The Kd in assay [1] was 2.1 nM.

For `C[C@H]1CCCN1C(=O)c1nc(C(=O)NC(C)(C)CO)sc1-c1cnc(NC(C)(C)C)cc1C(F)(F)F` [Example 339, 5-[6-(tert-Butylamino)-4-(trifluoromethyl)-3-pyridyl]-N-(2-hydroxy-1,1-dimethyl-ethyl)-4-[(2S)-2-methylpyrrolidine-1-carbonyl]thiazole-2-carboxamide], on full-length human RORγt, the inhibition at 3 µM was 109% and the IC50 amounted to 2.9 nM. Further, the dissociation constant Kd in assay [1] was 0.97 nM.
